One series deals with T1, tyrosinase (Mus musculus, UniProt P11344).
T1 construct: the supernatant obtained constitutes the cell lysate used as tyrosinase source in the enzymatic assay; endogenous in cells; host or cells: B16F1 murine melanoma cells, stimulated with alpha-MSH; detergent/ultrasound lysate supernatant
T1 sequence (P11344 19-533): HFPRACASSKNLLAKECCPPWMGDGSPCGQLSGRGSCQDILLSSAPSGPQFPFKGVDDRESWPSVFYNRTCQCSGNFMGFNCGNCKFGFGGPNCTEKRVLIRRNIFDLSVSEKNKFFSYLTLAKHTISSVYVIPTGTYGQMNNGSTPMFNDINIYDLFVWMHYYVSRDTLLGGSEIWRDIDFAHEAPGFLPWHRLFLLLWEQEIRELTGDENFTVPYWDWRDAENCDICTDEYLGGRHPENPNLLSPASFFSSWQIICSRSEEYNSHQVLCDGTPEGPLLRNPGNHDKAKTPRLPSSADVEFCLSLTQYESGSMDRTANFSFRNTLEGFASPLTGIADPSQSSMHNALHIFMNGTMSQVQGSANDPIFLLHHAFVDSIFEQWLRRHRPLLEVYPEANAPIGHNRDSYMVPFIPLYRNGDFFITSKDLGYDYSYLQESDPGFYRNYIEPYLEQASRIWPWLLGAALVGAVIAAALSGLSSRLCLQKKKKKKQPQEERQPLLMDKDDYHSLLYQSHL
As to the kind of experiment: Tyrosinase activity inhibition assay (B16F1 cell lysate, L-tyrosine/MBTH, 520 nm). Type of series: biochemical, murine. The note with it: lysate of B16F1 cells, 6 hours of incubation at 37° C.; read-out: Tyrosine hydroxylase/Dopa oxidase IC50. The method, then: The activity of the inhibitors is measured using a lysate of B16F1 cells (murine melanoma line). In the presence of the L-tyrosine substrate, the tyrosinase present in these cells catalyses the hydroxylation of L-tyrosine to give L-DOPA and then the oxidation of the L-DOPA to give dopaquinone. In the presence of MBTH (3-methyl-2-benzothiazolinone hydrazone), the dopaquinone is trapped so as to form a pink complex which absorbs at 520 nm.
The B16F1 cells are cultured in DMEM medium+10% foetal calf serum+10^−9M α-MSH for 4 days at 37° C. under 7% CO2. They are treated with trypsin, washed in PBS, counted and pelleted. The pellet is taken up at 10^7 cells/ml in lysis buffer (10 mM sodium phosphate, pH 6.8-1% Igepal) and the suspension is treated with ultrasound for 10 seconds. After centrifugation for 30 minutes at 4000 rpm, the supernatant obtained constitutes the cell lysate used as tyrosinase source in the enzymatic assay.
The assays are carried out in duplicate in 384-well plates in a total volume of 50 μl. […]
The plate is incubated at 37° C. and a spectro-photometric reading is carried out at 520 nm after 6 hours of incubation. In order to avoid any possible absorption of the products, the system uses corrected absorbance (absorbance at time 6 h—absorbance at time zero). […]

A short description of series [1]: Cell toxicity (3H-leucine incorporation) in melanogenesis assay. The note with it: human, MNT1 human melanoma cells, incubation for 24 h. The series is classed as cell-based. The method, then: (§1) The inhibition of melanogenesis is measured in MNT1 human melanoma cells according to a protocol adapted from Reigner et al., Cell Mol Biol (1999) 45: 969-980. The assay is based on the concomitant incorporation of 2 radiolabelled tracers: ^14C-thiouracil is incorporated into the neosynthesized melanin and reflects melanogenesis, whereas ^3H-leucine is incorporated into the proteins and reflects cell viability and, consequently, the toxicity of the compounds tested.
(§2) The MNT1 cells are seeded into 96-well plates in the presence of the test compounds and of the radio-isotopes. After incubation for 24 h at 37° C., the cells are washed and the amount of the 2 radioisotopes is measured. The test compounds are evaluated in terms of dose-response so as to calculate an IC50 for inhibition of melanogenesis on the basis of the ^14C incorporation which is standardized through the ^3H incorporation. An IC50 for cell toxicity is also calculated on the basis of the ^3H incorporation.

Series [2] has as its system MNT1 human melanoma cells. As to the kind of experiment: Melanogenesis inhibition assay (14C-thiouracil incorporation standardized through 3H-leucine). Type of series: cell-based. The note with it: MNT-1, incubation for 24 h, 14C incorporation standardized through 3H incorporation. As to the method:
as §1, §2

The values that follow come from patent US8372879B2, “4-(heterocycloalkyl) benzene-1,3-diol compounds as tyrosinase inhibitors, process for the preparation thereof and use thereof in human medicine and also in cosmetics” (Galderma Research & Development, priority 2008, dated 2013).

As to `Oc1ccc(C2CCSCC2)c(O)c1` [Compound 2, 4-(tetrahydrothiopyran-4-yl)benzene-1,3-diol], at tyrosinase, the IC50 is 400 nM.

For the compound `CCCCc1ccc(O)cc1O` [4-butylresorcinol (Rucinol), 4-butylresorcinol, reference compound], in series [1], the IC50 at 24 h came out at 55000 nM. The IC50 in series [2] came to 15000 nM.

For `Oc1ccc(C2CCOCC2)c(O)c1` [Compound 1, 4-(tetrahydropyran-4-yl)benzene-1,3-diol], in series [1], the IC50 at 24 h was over 999000 nM. Further, the IC50 on tyrosinase is 100 nM; in series [2], 1000 nM.
